Where two headings read alike, the source gives them in different places.

The target in test [1] is ENPP1 on MDA-MB-231 cells (Homo sapiens (Human), UniProt P22413). The experiment in a line: Assay 3: inhibition of ENPP1 hydrolysis of AMP p-nitrophenyl ester on MDA-MB-231 cells.
Experimental: Hydrolysis of the p-nitrophenyl ester of AMP (pNP-AMP), an isostere of ATP, is selectively catalyzed by ENPP1 in the supernatant of MDA-MB-231 cell cultures. Inhibition of the hydrolysis of pNP-AMP by MDA-MB-231 at pH 7.4 and 37° C., is a good model of physiologically relevant activity of membrane-bound ENPP1 at disease-relevant expression levels.
MDA-MB-231 cells were harvested using TypLE Express Enzyme digestion and suspended in 100 μL of Leibovitz's L-15 Medium, 20% FBS, seeding the cells in a 96-well assay plate with 4.5×10^4 cells/well. Cells were incubated at 37° C. with 1% CO2 for 24 h. In a separate dilution plate, 2× of top dose of compound was prepared in phenol-red free 1640 medium without FBS and then 1:3 serial diluted in the same medium. The cell culture medium of L15 medium was aspirated carefully and cells were washed with PBS once, and 50 μL per well of test compound or DMSO blank were added to the assay plate. Substrate mix (50 μL; 0.5 mM pNP-AMP in phenol-red free 1640 media without FBS) was added for a pNP-AMP final concentration of 0.25 mM. The system was incubated at 37° C. for 3 h.
Test [2] deals with ENPP-1 ECD (Homo sapiens (Human), UniProt P22413). The experiment in a line: Assay 2: inhibition of ENPP1 hydrolysis of 2′,3′-cGAMP (AMP-Glo, […] enzyme). The conditions noted are these: inhibition of ENPP1 hydrolysis of 2′,3′-cGAMP, no unit in Table 18 (Table 17 legend for this assay uses nM).
Experimental: Assay 2: Compared to the conditions in Assay 1, this assay has a larger dynamic range and ensures the system is under steady-state conditions by reducing the enzyme concentration in the assay.
Test compounds were plated in a 3× dilution scheme in a 384 well plate. […] AMP Detection solution (10 μL) was added to each well, the plate centrifuged and incubated for 60 min.
Where [3] appears, read: read-out: Assay 3 (KI, app), apparent KI from IC50 via Cheng/Prusoff, pNP-AMP […], MDA-MB-231 cells, pH 7.4, 37° C., 3 h, unit inferred.

ENPP1 on MDA-MB-231 cells, sequence (P22413 whole entry, the tested form may be a part): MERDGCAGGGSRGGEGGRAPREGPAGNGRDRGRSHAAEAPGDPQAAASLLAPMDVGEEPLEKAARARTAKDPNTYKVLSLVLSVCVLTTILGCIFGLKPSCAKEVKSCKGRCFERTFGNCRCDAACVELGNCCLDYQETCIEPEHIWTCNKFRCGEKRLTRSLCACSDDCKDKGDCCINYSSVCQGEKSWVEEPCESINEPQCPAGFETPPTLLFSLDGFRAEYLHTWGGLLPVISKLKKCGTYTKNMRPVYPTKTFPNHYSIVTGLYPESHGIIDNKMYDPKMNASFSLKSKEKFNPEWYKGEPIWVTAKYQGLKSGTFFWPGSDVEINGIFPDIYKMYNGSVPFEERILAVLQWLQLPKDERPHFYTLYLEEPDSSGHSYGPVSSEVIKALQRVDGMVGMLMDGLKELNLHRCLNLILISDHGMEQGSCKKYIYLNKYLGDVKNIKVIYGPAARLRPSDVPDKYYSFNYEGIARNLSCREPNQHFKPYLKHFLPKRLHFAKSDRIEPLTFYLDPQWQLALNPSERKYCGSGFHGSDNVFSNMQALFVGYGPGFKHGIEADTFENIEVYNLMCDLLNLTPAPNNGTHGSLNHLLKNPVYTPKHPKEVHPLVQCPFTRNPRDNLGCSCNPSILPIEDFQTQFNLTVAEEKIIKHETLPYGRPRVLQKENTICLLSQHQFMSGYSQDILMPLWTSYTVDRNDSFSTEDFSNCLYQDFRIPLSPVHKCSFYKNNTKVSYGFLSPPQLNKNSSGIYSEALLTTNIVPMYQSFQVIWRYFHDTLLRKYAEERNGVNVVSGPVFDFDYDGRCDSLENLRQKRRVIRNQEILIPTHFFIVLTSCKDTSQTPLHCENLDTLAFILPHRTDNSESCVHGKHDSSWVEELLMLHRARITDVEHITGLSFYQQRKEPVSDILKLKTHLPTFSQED
ENPP-1 ECD, sequence (P22413 98-925): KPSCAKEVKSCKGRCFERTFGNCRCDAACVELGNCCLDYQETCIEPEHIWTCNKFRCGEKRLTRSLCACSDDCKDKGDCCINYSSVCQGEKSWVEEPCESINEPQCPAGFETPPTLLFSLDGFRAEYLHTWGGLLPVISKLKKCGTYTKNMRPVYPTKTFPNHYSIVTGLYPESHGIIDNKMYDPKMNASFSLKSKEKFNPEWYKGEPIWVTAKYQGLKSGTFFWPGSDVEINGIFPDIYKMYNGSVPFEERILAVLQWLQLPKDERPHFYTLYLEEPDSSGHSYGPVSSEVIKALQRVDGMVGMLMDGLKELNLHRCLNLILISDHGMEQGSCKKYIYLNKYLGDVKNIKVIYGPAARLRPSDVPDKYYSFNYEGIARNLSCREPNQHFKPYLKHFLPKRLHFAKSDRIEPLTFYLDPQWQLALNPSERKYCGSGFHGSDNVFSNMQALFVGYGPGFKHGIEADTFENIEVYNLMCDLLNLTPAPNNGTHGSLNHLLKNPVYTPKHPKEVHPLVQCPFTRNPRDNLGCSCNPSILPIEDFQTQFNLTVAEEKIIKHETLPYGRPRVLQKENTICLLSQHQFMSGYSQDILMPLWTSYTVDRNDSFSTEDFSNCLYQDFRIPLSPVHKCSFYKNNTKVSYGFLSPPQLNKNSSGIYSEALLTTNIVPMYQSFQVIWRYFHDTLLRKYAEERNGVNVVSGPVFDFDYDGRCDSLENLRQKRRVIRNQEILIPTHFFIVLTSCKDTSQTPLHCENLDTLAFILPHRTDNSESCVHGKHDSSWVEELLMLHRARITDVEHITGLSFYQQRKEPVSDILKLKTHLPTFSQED

With `COc1ccc2c(OCc3cccc(S(C)(=N)=O)c3)ncnc2c1` (centres unmarked) [Compound 174, imino(3-{[(7-methoxyquinazolin-4-yl)oxy]methyl}phenyl)methyl-λ^6-sulfanone], the Ki in test [1] (setting [3]) came to 240 nM; in test [2] (read-out: Assay 2 (KI)) it was 5.2 nM.
As for `COc1cc2nccc(OCc3cccc(S(C)(=N)=O)c3)c2cc1OC` (centres unmarked) [Compound 175, (3-{[(6,7-dimethoxyquinolin-4-yl)oxy]methyl}phenyl)(imino)methyl-λ^6-sulfanone], the Ki amounted to 3.5 nM in test [1] and 0.037 nM in test [2] (Assay 2 (KI)).
In the case of `COc1cc2nccc(OCc3cccc([S@](C)(=N)=O)c3)c2cc1OC` [Compound 175a], the Ki in test [1] (setting [3]) is 0.53 nM; in test [2] (read-out: Assay 2 (KI)), 0.011 nM.
Take `COc1cc2nccc(OCc3cccc(S(C)(=N)=O)c3)c2cc1Cl` (centres unmarked) [Compound 176, (3-{[(6-chloro-7-methoxyquinolin-4-yl)oxy]methyl}phenyl)(imino)methyl-λ^6-sulfanone]: the Ki in test [1] was 7.2 nM; in test [2] (Assay 2 (KI)) it was 0.094 nM.
For `COc1ccc2c(OCc3cc(F)cc(S(C)(=N)=O)c3)ccnc2c1` (centres unmarked) [Compound 177, (3-fluoro-5-{[(7-methoxyquinolin-4-yl)oxy]methyl}phenyl)(imino)methyl-λ^6-sulfanone], the Ki is 1.5 nM in test [1] and 0.03 nM in test [2] (Assay 2 (KI)).
Regarding `COc1ccc2c(OCc3cc(F)cc([S@](C)(=N)=O)c3)ccnc2c1` [Compound 177b], the Ki came to 0.48 nM in test [1] (setting [3]) and 0.0085 nM in test [2] (read-out: Assay 2 (KI)).
As to `COc1cccc2c(N3CCC(CS(C)(=N)=O)CC3)c(C#N)cnc12` (centres unmarked) [Compound 179, 4-(4-{[imino(methyl)oxo-λ^6-sulfanyl]methyl}piperidin-1-yl)-8-methoxyquinoline-3-carbonitrile], the Ki is 3.3 nM in test [1] and 0.048 nM in test [2] (Assay 2 (KI)).
For the compound `COc1cccc2c(N3CCC(C[S@](C)(=N)=O)CC3)c(C#N)cnc12` [Compound 179b], the Ki in test [1] (setting [3]) stood at 0.63 nM; in test [2] (read-out: Assay 2 (KI)) it was 0.014 nM.
On to `COc1cc2ncnc(N3CCC4(CCC(S(C)(=N)=O)C4)CC3)c2cc1OC` (centres unmarked) [Compound 181, [8-(6,7-dimethoxyquinazolin-4-yl)-8-azaspiro[4.5]decan-2-yl](imino)methyl-λ^6-sulfanone], for which the results for the Ki in test [1] and in test [2] (Assay 2 (KI)) were 28 nM and 0.16 nM, respectively.
Regarding `COc1cc2nccc(N3CC4(CC(CS(C)(=N)=O)C4)C3)c2cc1F` (centres unmarked) [Compound 184, {[2-(6-fluoro-7-methoxyquinolin-4-yl)-2-azaspiro[3.3]heptan-6-yl]methyl}(imino)methyl-λ^6-sulfanone], the results for the Ki in test [1] and in test [2] (Assay 2 (KI)) were 5.5 nM and 0.13 nM, respectively.
`COc1cc2nccc(N3CC4(CC(C[S@@](C)(=N)=O)C4)C3)c2cc1F` [Compound 184a]: the Ki in test [1] (setting [3]) was found to be 1.7 nM; in test [2] (read-out: Assay 2 (KI)), 0.1 nM.
For `COc1cc2nccc(N3CC4(CC(C[S@](C)(=N)=O)C4)C3)c2cc1F` [Compound 184b] the same measures were 58 nM and 2.5 nM.
On to `COc1cccc2c(N3CCC(O)(CS(C)(=N)=O)CC3)ncnc12` (centres unmarked) [Compound 185, {[4-hydroxy-1-(8-methoxyquinazolin-4-yl)piperidin-4-yl]methyl}(imino)methyl-λ^6-sulfanone], for which the figures for the Ki in test [1] and in test [2] (Assay 2 (KI)) were 0.45 nM and 0.028 nM, respectively.
As for `COc1cccc2c(N3CCC(O)(C[S@@](C)(=N)=O)CC3)ncnc12` [Compound 185a], the Ki turned out to be 0.32 nM in test [1] (setting [3]) and 0.013 nM in test [2] (read-out: Assay 2 (KI)).
Consider `COc1cc2nccc(N3CC4(CC(CS(C)(=N)=O)C4)C3)c2cc1OC` (centres unmarked) [Compound 186, {[2-(6,7-dimethoxyquinolin-4-yl)-2-azaspiro[3.3]heptan-6-yl]methyl}(imino)methyl-λ^6-sulfanone], for which the Ki in test [1] came to 17 nM; in test [2] (Assay 2 (KI)), 0.38 nM.
Take `CCOc1cccc2c(N3CCC(CS(C)(=N)=O)CC3)ncnc12` (centres unmarked) [Compound 187, {[1-(8-ethoxyquinazolin-4-yl)piperidin-4-yl]methyl}(imino)methyl-λ^6-sulfanone]: the results for the Ki in test [1] and in test [2] (Assay 2 (KI)) were 4.4 nM and 0.19 nM, respectively.
`COc1cc2nncc(N3CC4(CC(CS(C)(=N)=O)C4)C3)c2cc1OC` (centres unmarked) [Compound 188, {[2-(6,7-dimethoxycinnolin-4-yl)-2-azaspiro[3.3]heptan-6-yl]methyl}(imino)methyl-λ^6-sulfanone]: the results for the Ki in test [1] and in test [2] (Assay 2 (KI)) were 6.5 nM and 0.074 nM, respectively.
Turning to `COc1cccc2c(N3CCC(CS(=N)(=O)C4CC4)CC3)c(C#N)cnc12` (centres unmarked) [Compound 189, 4-(4-{[cyclopropyl(imino)oxo-λ^6-sulfanyl]methyl}piperidin-1-yl)-8-methoxyquinoline-3-carbonitrile], the results for the Ki in test [1] and in test [2] (Assay 2 (KI)) were 0.45 nM and 0.033 nM, respectively.
In the case of `COc1cccc2c(N3CCC(C[S@](=N)(=O)C4CC4)CC3)c(C#N)cnc12` [Compound 189b], the Ki was found to be 0.31 nM in test [1] (setting [3]) and 0.0075 nM in test [2] (read-out: Assay 2 (KI)).
In the case of `COc1cccc2c(N3CCC(CS(=N)(=O)C4CC4)CC3)ncnc12` (centres unmarked) [Compound 190, cyclopropyl(imino){[1-(8-methoxyquinazolin-4-yl)piperidin-4-yl]methyl}-λ^6-sulfanone], the Ki was found to be 7.3 nM in test [1] and 0.19 nM in test [2] (Assay 2 (KI)).
For the compound `COc1cccc2c(N3CCC(O)(CS(=N)(=O)C4CCC4)CC3)ncnc12` (centres unmarked) [Compound 191, cyclobutyl({[4-hydroxy-1-(8-methoxyquinazolin-4-yl)piperidin-4-yl]methyl})imino-λ^6-sulfanone], the Ki in test [1] was determined as 15 nM; in test [2] (Assay 2 (KI)), 0.34 nM.
For `COc1cccc2c(N3CCC(O)(CS(=N)(=O)C4CC4)CC3)ncnc12` (centres unmarked) [Compound 193, cyclopropyl({[4-hydroxy-1-(8-methoxyquinazolin-4-yl)piperidin-4-yl]methyl})imino-λ^6-sulfanone], the Ki in test [1] turned out to be 0.62 nM; in test [2] (Assay 2 (KI)), 0.023 nM.
Take `COc1cccc2c(N3CCC(O)(C[S@](=N)(=O)C4CC4)CC3)ncnc12` [Compound 193b]: the results for the Ki in test [1] (setting [3]) and in test [2] (read-out: Assay 2 (KI)) were 0.36 nM and 0.012 nM, respectively.
With `CCOc1cccc2c(N3CCC(O)(CS(C)(=N)=O)CC3)ncnc12` (centres unmarked) [Compound 196, {[1-(8-ethoxyquinazolin-4-yl)-4-hydroxypiperidin-4-yl]methyl}(imino)methyl-λ^6-sulfanone], the Ki in test [1] was 2.3 nM; in test [2] (Assay 2 (KI)), 0.091 nM.
Consider `CCOc1cccc2c(N3CCC(CS(C)(=N)=O)CC3)c(C#N)cnc12` (centres unmarked) [Compound 197, 8-ethoxy-4-(4-{[imino(methyl)oxo-λ^6-sulfanyl]methyl}piperidin-1-yl)quinoline-3-carbonitrile], for which the Ki in test [1] was found to be 2.3 nM; in test [2] (Assay 2 (KI)) it was 0.04 nM.
In the case of `COc1cccc2c(N3CCC(O)(CS(C)(=N)=O)CC3)c(C#N)cnc12` (centres unmarked) [Compound 198, 4-(4-hydroxy-4-{[imino(methyl)oxo-λ^6-sulfanyl]methyl}piperidin-1-yl)-8-methoxyquinoline-3-carbonitrile], the Ki in test [1] stood at 0.2 nM; in test [2] (Assay 2 (KI)), 0.014 nM.
As for `COc1cccc2c(N3CCC(O)(C[S@@](C)(=N)=O)CC3)c(C#N)cnc12` [Compound 198a], the Ki was 0.086 nM in test [1] (setting [3]) and 0.0025 nM in test [2] (read-out: Assay 2 (KI)).
Turning to `COc1cccc2c(N3CCC(O)(CS(C)(=N)=O)CC3)nc(C)nc12` (centres unmarked) [Compound 199, {[4-hydroxy-1-(8-methoxy-2-methylquinazolin-4-yl)piperidin-4-yl]methyl}(imino)methyl-λ^6-sulfanone], the Ki came out at 8.8 nM in test [1] and 0.43 nM in test [2] (Assay 2 (KI)).

(Values after patent publication US11780849B2, “Imino sulfanone inhibitors of ENPP1” (Volastra Therapeutics, Inc., priority 2020, dated 2023).)
